From PubChem BioAssay AID1259408 (Genetic Toxicology Data Bank (GENE-TOX), 2018)
Calls of active or inactive are those of the source. How the calls were made is not given here.

System: GENE-TOX genotoxicity assays, various organisms and cells
Experiment: GENE-TOX mutagenicity studies
Conditions: for call: Assay Type: In vivo carcinogenicity studies
[1] = Species/Cell Type: Drosophila melanogaster, Assay Type: Sex-linked recessive lethal gene mutation, Assay Code: SRLT, Evaluation Type: Evaluation A (Pre-1980)
[2] = Species/Cell Type: Salmonella typhimurium (one or more of the five standard strains: TA98, TA100, TA1535, TA1537, and TA1538), Assay Type: Histidine reverse gene mutation, Ames assay, Assay Code: SALT, Evaluation Type: Evaluation A (Pre-1980)
[3] = Species/Cell Type: Salmonella typhimurium (one or more of the five standard strains: TA98, TA100, TA1535, TA1537, and TA1538), Assay Type: Histidine reverse gene mutation, Ames assay, Assay Code: SAL+*, Activation: With metabolic activation, Evaluation Type: Evaluation A (Pre-1980)
[4] = Species/Cell Type: Bacillus subtilis (H17 vs M45), Assay Type: Rec-assay, spot test, DNA effects (bacterial DNA repair), Assay Code: REWT, Evaluation Type: Evaluation A (Pre-1980)
[5] = Species/Cell Type: Drosophila melanogaster, Assay Type: Sex-linked recessive lethal gene mutation, Assay Code: SRL+, Evaluation Type: Evaluation A (Pre-1980)
[6] = Species/Cell Type: Chinese hamster lung (V79) cells, Assay Type: Forward gene mutation at the HPRT or ouabain locus, Assay Code: V79+, Evaluation Type: Evaluation A (Pre-1980)
[7] = Species/Cell Type: Human lymphocytes, Assay Type: Sister-chromatid exchange (SCE) in vitro, Assay Code: SCLT, Evaluation Type: Evaluation B (Post-1980)
[8] = Species/Cell Type: Human, Assay Type: Sister-chromatid exchange (SCE) in vitro, Assay Code: SC1T, Evaluation Type: Evaluation B (Post-1980)
[9] = Species/Cell Type: Human, Assay Type: Sister-chromatid exchange (SCE) in vitro, Assay Code: SC1+D, Dose Response: With dose response, Evaluation Type: Evaluation B (Post-1980)
[10] = Species/Cell Type: Allium cepa, Assay Type: Chromosome aberrations, Assay Code: ALC+, Evaluation Type: Evaluation A (Pre-1980)

COC[CH2][Hg][Cl]
mutagenic call (Species/Cell Type: Drosophila melanogaster, Assay Type: Aneuploidy, sex chromosome gain, chromosome aberrations, Assay Code: DAG-F-M, Evaluation Type: Evaluation A (Pre-1980)): inactive; negative | mutagenic call (Species/Cell Type: Drosophila melanogaster, Assay Type: Aneuploidy, whole sex chromosome loss, chromosome aberrations, Assay Code: DAC-M-F, Evaluation Type: Evaluation A (Pre-1980)): inactive; negative

Cc1ccc2cc3c(ccc4cc(C)ccc43)cc2c1
mutagenic call [1]: no conclusion

Clc1ccc(Cl)c(-c2cc(Cl)ccc2Cl)c1
mutagenic call [2]: no conclusion

CCC1(O)CC(OC2CC(N)C(OC3CC(O)C(OC4CCC(=O)C(C)O4)C(C)O3)C(C)O2)c2c(cc3c(c2O)C(=O)c2c(O)cccc2C3=O)C1C(=O)OC (stereo unspecified)
mutagenic call [3]: active; positive

Oc1ccc(N=Nc2ccccc2)cc1
mutagenic call (Species/Cell Type: Salmonella typhimurium (one or more of the five standard strains: TA98, TA100, TA1535, TA1537, and TA1538), Assay Type: Histidine reverse gene mutation, Ames assay, Assay Code: SAL-, Evaluation Type: Evaluation A (Pre-1980)): inactive; negative

CNC(=O)Oc1ccccc1Cl
mutagenic call [4]: no conclusion | mutagenic call (Species/Cell Type: Bacillus subtilis (H17 vs M45T), Assay Type: Rec-assay, spot test, DNA effects (bacterial DNA repair), Assay Code: REX-, Evaluation Type: Evaluation A (Pre-1980)): inactive; negative | mutagenic call (Species/Cell Type: Escherichia coli WP2, Assay Type: Tryptophan reverse gene mutation, Assay Code: WP2-, Evaluation Type: Evaluation A (Pre-1980)): inactive; negative

CCOC(=O)N(CC)N=O
mutagenic call (Species/Cell Type: Arabidopsis species, Assay Type: Gene mutation, Assay Code: ARM+D, Dose Response: With dose response, Evaluation Type: Evaluation A (Pre-1980)): active; positive | mutagenic call (Species/Cell Type: Drosophila melanogaster, Assay Type: Aneuploidy, partial sex chromosome loss, chromosome aberrations, Assay Code: DAP+MDAC+M, Dose Response: With dose response, Evaluation Type: Evaluation A (Pre-1980)): active; positive | mutagenic call (Species/Cell Type: Drosophila melanogaster, Assay Type: Aneuploidy, sex chromosome gain, chromosome aberrations, Assay Code: DAGT, Evaluation Type: Evaluation A (Pre-1980)): no conclusion | mutagenic call [5]: active; positive | mutagenic call (Species/Cell Type: Escherichia coli polA (W3119 vs P3478), Assay Type: Rec-assay, DNA effects (bacterial DNA repair), Assay Code: RE1+, Evaluation Type: Evaluation A (Pre-1980)): active; positive | mutagenic call (Species/Cell Type: Hordeum vulgare (barley), Assay Type: Gene mutation, Assay Code: HOM+D, Dose Response: With dose response, Evaluation Type: Evaluation A (Pre-1980)): active; positive | mutagenic call (Species/Cell Type: Neurospora crassa, Assay Type: Reverse gene mutation, Assay Code: NER+, Evaluation Type: Evaluation A (Pre-1980)): active; positive | mutagenic call (Species/Cell Type: Saccharomyces cerevisiae, Assay Type: Mitotic recombination or gene conversion, Assay Code: YEC+, Evaluation Type: Evaluation A (Pre-1980)): active; positive | mutagenic call (Species/Cell Type: Salmonella typhimurium (one or more of the five standard strains: TA98, TA100, TA1535, TA1537, and TA1538), Assay Type: Histidine reverse gene mutation, Ames assay, Assay Code: SAL+, Evaluation Type: Evaluation A (Pre-1980)): active; positive | mutagenic call (Species/Cell Type: Schizosaccharomyces pombe, Assay Type: Reverse gene mutation, Assay Code: YEZ+, Evaluation Type: Evaluation A (Pre-1980)): active; positive

O=C1CCc2ccc3c(ccc4ccccc43)c21
mutagenic call [3]: active; positive

Cc1ccc2cc3c(c4c2c1CC4)C1OC1c1ccccc1-3 (stereo unspecified)
mutagenic call [6]: active; positive | mutagenic call [5]: active; positive | mutagenic call (Species/Cell Type: Mouse prostate cells, Assay Type: Cell transformation, Assay Code: CTM+, Evaluation Type: Evaluation A (Pre-1980)): active; positive | call (Species/Cell Type: Nonhuman, Assay Code: CCGT, Evaluation Type: Evaluation A (Pre-1980)): no conclusion | mutagenic call (Species/Cell Type: Syrian hamster embryo (SHE) cells, Assay Type: Cell transformation, clonal assay, Assay Code: CTC+, Evaluation Type: Evaluation A (Pre-1980)): active; positive

Cc1cc2c(C)c3ccccc3c(C)c2c2ccccc12
mutagenic call (Species/Cell Type: Chinese hamster lung (V79) cells, Assay Type: Forward gene mutation at the HPRT or ouabain locus, Assay Code: V79-*, Activation: With metabolic activation, Evaluation Type: Evaluation A (Pre-1980)): inactive; negative

Cc1cccc2c1ccc1c3ccccc3ccc21
mutagenic call [3]: active; positive

CN=C(NC#N)NCCSCc1nc[nH]c1C
mutagenic call [7]: no conclusion | mutagenic call [8]: no conclusion | mutagenic call (Species/Cell Type: Human, Sex: Male, Assay Type: Sperm morphology, Assay Code: SPHT, Evaluation Type: Evaluation A (Pre-1980)): no conclusion

OC1C2OC2=C2C=c3ccc4cccc5ccc(c3c54)C2C1O (stereo unspecified)
mutagenic call [6]: active; positive

CN(N=O)C(=O)Oc1ccccc1Cl
mutagenic call (Species/Cell Type: Bacillus subtilis (H17 vs M45T), Assay Type: Rec-assay, spot test, DNA effects (bacterial DNA repair), Assay Code: REX+, Evaluation Type: Evaluation A (Pre-1980)): active; positive | mutagenic call (Species/Cell Type: Escherichia coli WP2, Assay Type: Tryptophan reverse gene mutation, Assay Code: WP2+, Evaluation Type: Evaluation A (Pre-1980)): active; positive

C/C=C(\C(=C/C)c1ccc(O)cc1)c1ccc(O)cc1
mutagenic call [9]: active; positive

Cc1cc2c(c3ccc4ccccc4c13)CC(O)C2=O (stereo unspecified)
mutagenic call [3]: active; positive

CC(=O)Nc1c(I)c(NC(C)=O)c(I)c(C(=O)O)c1I
mutagenic call [7]: no conclusion | mutagenic call [8]: no conclusion

O=C(OCC1=CCN2CC[C@@H](OC(=O)c3ccc(Cl)cc3)[C@@H]12)c1ccc(Cl)cc1
mutagenic call [10]: active; positive

COC1=CC(=O)C[C@@H](C)[C@]12Oc1c(Cl)c(OC)cc(OC)c1C2=O
mutagenic call [10]: active; positive | mutagenic call (Species/Cell Type: Aspergillus nidulans, Assay Type: Aneuploidy, chromosome aberrations, Assay Code: ASN+, Evaluation Type: Evaluation A (Pre-1980)): active; positive | mutagenic call (Species/Cell Type: Aspergillus nidulans, Assay Type: Mitotic recombination, Assay Code: ASGT, Evaluation Type: Evaluation A (Pre-1980)): no conclusion | mutagenic call [4]: no conclusion | mutagenic call (Species/Cell Type: Escherichia coli polA (W3119 vs P3478), Assay Type: Rec-assay, DNA effects (bacterial DNA repair), Assay Code: RE1T, Evaluation Type: Evaluation A (Pre-1980)): no conclusion | mutagenic call (Species/Cell Type: Mammalian polychromatic erythrocytes, Assay Type: Micronucleus test, chromosome aberrations, Assay Code: MNTT, Evaluation Type: Evaluation A (Pre-1980)): no conclusion | mutagenic call (Species/Cell Type: Mouse, Sex: Male, Assay Type: Sperm morphology, Assay Code: SPI+, Evaluation Type: Evaluation A (Pre-1980)): active; positive | call (Species/Cell Type: Nonhuman, Assay Code: CCG+L, Evaluation Type: Evaluation A (Pre-1980)): active; positive | mutagenic call (Species/Cell Type: Nonhuman, Assay Type: Sister-chromatid exchange (SCE) in vivo, Assay Code: SC3+D, Dose Response: With dose response, Evaluation Type: Evaluation B (Post-1980)): active; positive | mutagenic call (Species/Cell Type: Saccharomyces cerevisiae, Assay Type: Mitotic recombination or gene conversion, Assay Code: YEH-, Evaluation Type: Evaluation A (Pre-1980)): inactive; negative | mutagenic call [2]: no conclusion

N#CO
mutagenic call (Species/Cell Type: Arabidopsis species, Assay Type: Gene mutation, Assay Code: ARM+, Evaluation Type: Evaluation A (Pre-1980)): active; positive

CN(C)N=Nc1ccc(O)cc1
mutagenic call [1]: no conclusion | mutagenic call (Species/Cell Type: Saccharomyces cerevisiae, Assay Type: Mitotic recombination or gene conversion, Assay Code: YEC+/-*, Activation: With metabolic activation, Evaluation Type: Evaluation A (Pre-1980)): inactive; positive without activation, negative with activation

O=[O+][O-]
mutagenic call (Species/Cell Type: Human lymphocytes or leukocytes, Assay Type: Chromosome aberrations in vitro, Assay Code: CY7T, Evaluation Type: Evaluation A (Pre-1980)): no conclusion | mutagenic call (Species/Cell Type: Human lymphocytes or leukocytes, Assay Type: Chromosome aberrations in vivo, Assay Code: CY8T, Evaluation Type: Evaluation A (Pre-1980)): no conclusion | mutagenic call [9]: active; positive | mutagenic call (Species/Cell Type: Mammalian germ cells, Sex: Male, Assay Type: Chromosome aberrations in vivo, Assay Code: CY9T, Evaluation Type: Evaluation A (Pre-1980)): no conclusion | mutagenic call (Species/Cell Type: Nonhuman bone marrow, Assay Type: Chromosome aberrations, in vivo, Assay Code: CY#-, Evaluation Type: Evaluation A (Pre-1980)): inactive; negative | mutagenic call (Species/Cell Type: Nonhuman lymphocytes or leukocytes, Assay Type: Chromosome aberrations in vivo, Assay Code: CY%T, Evaluation Type: Evaluation A (Pre-1980)): no conclusion | mutagenic call (Species/Cell Type: Nonhuman, Assay Type: Sister-chromatid exchange (SCE) in vivo, Assay Code: SC3-, Evaluation Type: Evaluation A (Pre-1980)): inactive; negative | mutagenic call (Species/Cell Type: Tradescantia species, Assay Type: Gene mutation, Assay Code: TRM+D, Dose Response: With dose response, Evaluation Type: Evaluation A (Pre-1980)): active; positive | mutagenic call (Species/Cell Type: Vicia faba, Assay Type: Chromosome aberrations, Assay Code: VIC+, Evaluation Type: Evaluation A (Pre-1980)): active; positive

COP(=S)(OC)Oc1ccc([N+](=O)[O-])c(C)c1
mutagenic call [1]: no conclusion | mutagenic call (Species/Cell Type: Human, Assay Type: Sister-chromatid exchange (SCE) in vitro, Assay Code: SC1+, Evaluation Type: Evaluation B (Post-1980)): active; positive | mutagenic call (Species/Cell Type: Mammalian polychromatic erythrocytes, Assay Type: Micronucleus test, chromosome aberrations, Assay Code: MNTT, Evaluation Type: Evaluation B (Post-1980)): no conclusion | mutagenic call (Species/Cell Type: Rodents, Sex: Male, Assay Type: Dominant lethal test, Assay Code: DLT-, Evaluation Type: Evaluation A (Pre-1980)): inactive; negative | mutagenic call (Species/Cell Type: Salmonella typhimurium, Assay Type: Forward and reverse gene mutation, host-mediated assay, Assay Code: HMA-, Evaluation Type: Evaluation A (Pre-1980)): inactive; negative
